Patent US20170258747A1, “GLUTAMINE ENRICHED NUTRITIONAL COMPOSITION FOR PRETERM INFANTS” (N.V. Nutricia, priority 2012, published 2017)

How the values were obtained:
VLBW infants [1] = settings: at age of 2 years; cited from earlier work
VLBW infants [2] = settings: in the first year of life and at the age of 6; cited from earlier work
[3] = tested on: very preterm and/or VLBW children; assay: Brain subcortical volumes by MRI at school age after enteral glutamine supplementation, days 3-30 of life; type: in vivo, human
Experimental: (§1) A randomized, placebo controlled clinical trial was performed. For a detailed protocol of the study, see van den Berg et al, 2004, Glutamine-enriched enteral nutrition in very low birth weight infants. Design of a double-blind randomised controlled trial [ISRCTN73254583], BMC Pediatrics 4:17.
(§2) In short: Infants with a gestational age <32 weeks and/or birth weight <1500 g were enrolled. In total 52 very preterm and/or VLBW children, which had taken part in a randomized controlled trial on enteral glutamine supplementation between day 3 and 30 of life, participated in this follow up study at the mean age of 8.6 years (SD=0.3 years). 30 infants were in the control group and 22 in the glutamine supplementation group. Also comparisons were made with a control group (n=52) of term born infants.
(§3) The glutamine nutritional supplement was in powder form and contained 82 wt. % L-glutamine in total and 18 wt. % glucose (nitrogen 15.5 wt/wt %; 371 kcal/100 g), whereas the isonitrogenous control powder contained 100 wt. % L-alanine (nitrogen 15.7 wt/wt %, 435 kcal/100 g). The two powders were indistinguishable by appearance, colour and smell. Between days 3 and 30 of life, supplementation was administered in increasing doses to a maximum of 0.3 g/kg glutamine per day in the glutamine group. Initially, the supplementation dose was based on birth weight. After 2 weeks the dose was adjusted to actual body weight. Two members of the nursing staff daily added supplementation to breast milk or to preterm formula (Nenatal®, Nutricia Nederland B.V., Zoetermeer, The Netherlands), according to the parents' choice. Per 100 ml, Nenatal® provides 78 kcal, 2.1 g protein (casein-whey protein weight ratio 40:60), 4.4 g fat and 7.5 g carbohydrate. […] Protocol guidelines for the introduction of parenteral and enteral nutrition are disclosed in van den Berg et al., 2004.
(§4) All statistical analyses are performed on an intention to treat basis. In addition, alternative per protocol analyses are performed, excluding all patients who are not treated according to protocol, defined as more than 3 consecutive days or more than a total of 5 days on minimal enteral feeding or without supplementation. A p value<0.05 is considered significant (two-tailed). SPSS 9.0 (SPSS Inc., Chicago, Ill., USA) and STAT 7.0 (Stat-Corp LP, College Station, Tex., USA) are used for data analysis. A p value of 0.1 or below is considered to represent a realistic effect, a trend. Due to the small size of the groups also the effect size is taken into account. An effect size above 0.4 is considered to represent a trend.
Brain subcortical volumes were determined by Mill and calculated using FSL software “FAST” and corrected for age at Mill scan, gender and body weight for gestational age. […] This was the case for the brain stem, thalamus, putamen, caudate nucleus, hippocampus, globus pallidum, amygdale, nucleus accumbens and the corpus callosum volume.

[4] = tested on: glutamine fed preterm group; assay: fMRI neuronal activation later in life; type: in vivo, human
From the text: The improved brain development established at school age is indicative for improvement in neurocognitive functioning, behavioral and/or motional development, improving neuronal activation during interference task or during visuo-spatial working memory task, improvement of visuomotor skills (caterpillar-task).

[5] = tested on: very preterm and/or VLBW children; assay: Brain cortical volumes by MRI at school age after enteral glutamine supplementation, days 3-30 of life; type: in vivo, human
Experimental: as §1, §2, §3, §4
Brain cortical volumes were determined by MRI and calculated using FSL software “FAST” and corrected for age at MM scan, gender and body weight for gestational age. […] This was the case for intracranial volume, grey matter, white matter and cerebellum volume.

VLBL infants = settings: supplementation with glutamine in VLBL infants; cited from earlier work
[6] = tested on: very preterm and/or VLBW children; assay: Intellectual development, short form of WISC-III; type: in vivo, human; settings: mean, sd 17.7, n=30; scores normalised with a mean of 100 (SD 15); p=0.12 versus control
Experimental: Intellectual development was measured in the same group of infants as example 1 by a short form of the Wechsler Intelligence Scale for Children-III (WISC-III), including the subtests Vocabulary and Block Design. […]. Both subtests correlate strongly (r 0.90) with full-scale intelligence quotient (FSIQ). Scores on this test were normalised with a mean of 100 (SD 15). There was a trend (p=0.12 when adjusted for gestational age and socioeconomic status) in improved IQ (WISC-III FSIQ being 102, sd 17.7, n=30) in the glutamine group compared to the control group (WISC-III FSIQ 93.6 sd 17.2 n=34).

[7] = glutamine supplemented versus control preterm group
[8] = mean, MRI at mean age 8.6 years
[9] = mean, MRI at mean age 8.6 years, max 0.3 g/kg glutamine per day, days 3-30 of life

NC(=O)CC[C@H](N)C(=O)O [Glutamine, L-glutamine]
Neurodevelopment outcome (VLBW infants [1]): no effect | Risk for atopic dermatitis (VLBW infants [2]): decreases | Effect size, amygdala ([3]; control versus glutamine group): 0.46 | Effect size, brain stem ([3]; control versus glutamine group): 0.54 | Effect size, caudate nucleus ([3]; control versus glutamine group): 0.10 | Effect size, corpus callosum ([3]; control versus glutamine group): 0.18 | Effect size, globus pallidum ([3]; control versus glutamine group): 0.48 | Effect size, hippocampus ([3]; control versus glutamine group): 0.47 | Effect size, nucleus accumbens ([3]; control versus glutamine group): 0.04 | Effect size, putamen ([3]; control versus glutamine group): 0.55 | Effect size, subcortical structures ([3]; control versus glutamine group): 0.50 | Effect size, thalamus ([3]; control versus glutamine group): 0.39 | Brain stem volume compared with preterm control group [3, 7]: significantly higher | Hippocampus volume compared with preterm control group [3, 7]: significantly higher | Subcortical volume compared with preterm control group [3, 7]: higher | Amygdala volume [3, 8]: 2.3 cm^3 | Brain stem volume [3, 8]: 18.9 cm^3 | Caudate Nucleus volume [3, 8]: 7.4 cm^3 | Corpus callosum [3, 8]: 535.7 mm^2 | Globus Pallidum volume [3, 8]: 3.5 cm^3 | Hippocampus volume [3, 8]: 7.2 cm^3 | Nucleus accumbens volume [3, 8]: 1.0 cm^3 | Putamen volume [3, 8]: 10.9 cm^3 | Subcortical structures volume [3, 8]: 66.5 cm^3 | Thalamus volume [3, 8]: 15.3 cm^3 | Neuronal activation (fMRI) [4]: more similar to term infants | Effect size, cerebellum ([5]; control versus glutamine group): 0.41 | Effect size, grey matter ([5]; control versus glutamine group): 0.29 | Effect size, intracranial volume ([5]; control versus glutamine group): 0.48 | Effect size, white matter ([5]; control versus glutamine group): 0.54 | Cerebellum volume compared with preterm control group [5, 7]: tendency for an increase | Cortical brain volumes compared with preterm control group [5, 7]: higher than in the control group | Intracranial volume compared with preterm control group [5, 7]: tendency for an increase | White matter volume compared with preterm control group [5, 7]: significantly higher | Cerebellum volume [5, 9]: 110.89 cm^3 | Grey matter volume [5, 9]: 727.4 cm^3 | Intracranial volume [5, 9]: 1649.8 cm^3 | White matter volume [5, 9]: 496.5 cm^3 | Infectious morbidity (VLBL infants): lowers | WISC-III FSIQ [6]: 102
